The values that follow come from PMC9981504 (Journal of Biological Inorganic Chemistry, 2023).

For the assay, the target named is T1, soybean lipoxygenase (Glycine max, UniProt P08170).
T1 construct: gene LOX1.1
As to the kind of experiment: UV enzyme assay at […] nm, % inhibition at […]. It counts as biochemical. To be noted: read-out: LOX % 100 μM or IC50.

The structures appear in SMILES notation.

T1 sequence (P08170 whole entry): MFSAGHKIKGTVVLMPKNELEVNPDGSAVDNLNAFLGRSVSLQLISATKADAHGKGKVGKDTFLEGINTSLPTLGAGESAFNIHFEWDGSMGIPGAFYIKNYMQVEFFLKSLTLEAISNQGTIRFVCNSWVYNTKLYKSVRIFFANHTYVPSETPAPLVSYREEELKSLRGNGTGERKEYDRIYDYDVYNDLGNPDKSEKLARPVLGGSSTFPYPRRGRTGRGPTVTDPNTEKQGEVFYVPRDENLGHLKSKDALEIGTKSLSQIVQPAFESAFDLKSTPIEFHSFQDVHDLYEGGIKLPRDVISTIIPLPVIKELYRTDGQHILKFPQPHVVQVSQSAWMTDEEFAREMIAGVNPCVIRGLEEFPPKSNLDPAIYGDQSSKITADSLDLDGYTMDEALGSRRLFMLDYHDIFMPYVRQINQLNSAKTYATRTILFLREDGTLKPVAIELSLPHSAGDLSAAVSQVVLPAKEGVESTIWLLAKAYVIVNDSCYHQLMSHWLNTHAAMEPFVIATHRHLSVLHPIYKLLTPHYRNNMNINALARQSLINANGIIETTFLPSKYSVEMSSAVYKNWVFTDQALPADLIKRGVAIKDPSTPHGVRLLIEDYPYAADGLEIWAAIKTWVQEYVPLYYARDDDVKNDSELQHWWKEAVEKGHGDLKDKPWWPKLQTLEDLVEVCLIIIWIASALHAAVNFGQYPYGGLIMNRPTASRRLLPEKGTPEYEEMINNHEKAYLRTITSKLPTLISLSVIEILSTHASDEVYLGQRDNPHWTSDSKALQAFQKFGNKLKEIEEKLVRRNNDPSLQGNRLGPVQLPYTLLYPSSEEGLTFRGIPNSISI

`O=c1c(O)c(-c2ccc(O)cc2)oc2cc(O)ccc12` [resokaempferol, 3,7,4΄-trihydroxyflavone]: the inhibition at 100 µM was found to be 90%.
